System: T1, PDE3B
T1 construct: Epac2-camps-PDE3B fusion biosensor
Test: live-cell FRET with Epac-camps/PDE3B fusion biosensors in HEK293a cells
Assay type: cell-based

IC50: ~700 µM
Compound: CCCCNC(=O)NS(=O)(=O)c1ccc(C)cc1 [TOL, tolbutamide]

Source: PMC11352370, “Live Cell Monitoring of Phosphodiesterase Inhibition by Sulfonylurea Drugs” (Biomolecules, 2024)
